Data published in US11932872B2, “Dual chimeric antigen receptor-t cell which can be regulated, construction method therefor and use thereof” (NANJING ANJI BIOLOGICAL TECHNOLOGY CO., LTD, priority 2017, dated 2024).
Ends that are not written are not given here.

Legend:
[1] = tested on: K562 tumor cells; assay: Killing curve of K562 tumor cells by puromycin / hygromycin; assay type: cell-based; details: 5 consecutive days
Procedure: 1) Low-generation cell strains were resuscitated from liquid nitrogen, and subjected to conventional culture and passaged 5 times, then the cell state was adjusted to a logarithmic growth period.
2) A new 24-well plate was prepared, 50000 K562 tumor cells were inoculated per well for 7 wells in total, and 500 μL of complete culture medium (RPMI1640, 10% FBS) was added per well. The well plate was placed in an incubator at 37° C. with 5% CO2 and cultured overnight.
3) The cell well plate was taken out from the incubator, one well was left free of puromycin, and puromycin with final concentrations of 0.5, 1, 2, 4, and 8 μg/mL were added to the remaining wells respectively.
4) The well plate was placed in an incubator at 37° C. with 5% CO2 for continuous cultivation. The state of cells in the well plate was observed under a microscope every day for 5 consecutive days. And the minimum concentration that can completely kill all cells on the fifth day was taken as the puromycin concentration for subsequent stable cell strain screening.
The method is the same as that of Example 3.4. The concentration gradient of the hygromycin was set to 50, 100, 200, 400 and 800 μg/mL respectively, and the concentration of the hygromycin was finally selected to be 100 μg/mL through the determination of the killing curve.

[2] = tested on: MSLN+K562 target cells (mixed 1:1 with CEA+K562); assay: Cytotoxicity test of sdCAR-T cells in vitro; assay type: cell-based, human; details: for percentage content of homologous target cells MSLN+K562 (green fluorescence): fluorescence detection, versus beginning of the test
Procedure: The cytotoxicity of sdCAR-T cells was determined according to the survival rate of target cells (MSLN^+K562). The selected target cells were equal mixed cells of MSLN and CEA. […] The survival rate of MSLN target cells in each test group was calculated according to the following formula, and then the tumor killing ability of the constructed CARs-T cells in vitro could be analyzed.
1) Effector cells and mixed target cells (MSLN^+K562:CEA^+K562, 1:1) were co-incubated at a ratio of 5:2 in a U-shaped 96-well plate, RPMI1640 (10% FBS) was selected as a co-culture medium, and corresponding switching molecule s were added.
2) Culturing at 37° C. for 22 h with 5% CO2.
3) The ratio of MSLN and CEA tumor cells in each test group was detected by a flow cytometer, and then the survival rate of MSLN target cells was calculated.

[3] = tested on: MSLN+K562 cells (mixed 1:1 with CEA+K562); assay: Time regulation of in vitro activity of sdCAR-T cells by exogenous switching molecules; assay type: cell-based, human; details: switching molecule added at 4 h, sampled every 2 h, effector:target 5:2
Procedure: This example verified that the killing activity of the sdCAR-T cells on tumor cells was subjected to time regulation by the switching molecules, and the selected target cells were MSLN single positive tumor cells and single positive tumor cells of negative control CEA. In the 14-hour test, the cytotoxicity of sdCAR-T cells was tested in real time with and without switching molecules. A total of four test groups were designed, each group had three parallel wells, and the design of test group was the same as that of Example 6.
1) Effector cells and mixed target cells (MSLN^+K562:CEA^+K562, 1:1) were co-incubated at a ratio of 5:2 in a 6-well plate, RPMI1640 (containing 10% FBS) was selected as a co-culture medium, cultured at 37° C. with 5% CO2.
2) 100 μL of cell suspension was taken every 2 h as the culturing begins at the 0 h.
3) Corresponding switching molecules were added at the 4 h.
4) Co-culturing for 10 h (that is, cell suspension was taken 6 times); after the culture, the ratio of MSLN and CEA tumor cells in each test group was detected by a flow cytometer, and then the survival rate of MSLN target cells was calculated.

[4] = tested on: MSLN+K562 cells (mixed equally with CEA+K562 cells, intraperitoneal); assay: Tumor killing test by sdCAR-T cells in vivo; parameters: species or system nude mice BALB/c; details: nude mice; for in vivo cytokine (IL-2 and IFNγ) release level / in vivo cytokine (IL-2 and IFNγ) release level compared with Conventional CAR-T cell group: abdominal cavity fluid supernatant; for in vivo cytotoxicity of sdCAR-T cells: intraperitoneal tumor cells, abdominal cavity fluid by flow cytometry
Procedure: Female nude mice BALB/c which were 6-8 weeks old were selected, MSLN^+K562 cells and CEA^+K562 cells were mixed equally and injected intraperitoneally into the nude mice, and then corresponding effector cells and switching molecules were added respectively. Refer to FIG. 19 for details of the in vivo test process. Six test groups were designed, with 6 nude mice in each group. Specific solutions are as follows:
group 1: effector cells are T cells (No CAR) and no switching molecules are added;
group 2: effector cells are the second generation of CAR-T cells (Conventional CAR) specific to MSLN, and no switching molecules are added;
group 3: effector cells are sdCAR-T cells and no switching molecules are added;
group 4: effector cells are sdCAR-T cells, and small molecule HM-3 is added;
group 5: effector cells are sdCAR-T cells and switching molecule FITC is added; and
After the test was completed, the nude mice were euthanized, and then 5 mL of pre-cooled PBS was injected into the abdominal cavities of the nude mice. After the abdominal cavities of the nude mice were rubbed many times, the abdominal cavity fluid was sucked out completely, and centrifuged at a centrifugal force of 800 g for 8 min. The cells were collected, and the percentage of the two tumor cells was measured by flow cytometry, and then the in vivo activity of sdCAR-T cells could be calculated. In addition, the above centrifuged supernatant was collected to measure the release levels of cytokines IL-2 and IFNγ respectively.

| Compound | minimum concentration that can completely kill all cells on the fifth day (concentration selected from the killing curve) [1] [µg/mL] | survival rate of MSLN tumor cells ([2]; effector:mixed target cells 5:2, 22 h, flow cytometry) | percentage content of homologous target cells MSLN+K562 (green fluorescence) [2] | cytotoxicity of sdCAR-T cells after addition of switching molecule [3] | in vivo cytokine (IL-2 and IFNγ) release level [4] | in vivo cytokine (IL-2 and IFNγ) release level compared with Conventional CAR-T cell group [4] | in vivo cytotoxicity of sdCAR-T cells [4] | in vivo cytotoxicity of FHBM treatment group compared with FITC treatment group ([4]; sdCAR-T cells plus switching molecule) |
| --- | --- | --- | --- | --- | --- | --- | --- | --- |
| COc1ccc(C[C@H](N)C(=O)N[C@H]2[C@@H](O)[C@H](n3cnc4c(N(C)C)ncnc43)O[C@@H]2CO)cc1 [puromycin] | 1 |  |  |  |  |  |  |  |
| O=C1OC2(c3ccc(O)cc3Oc3cc(O)ccc32)c2ccc(N=C=S)cc21 [FITC] |  | about 30.98% | significantly lower than that at the beginning of the test | significant cytotoxicity | release significant cytokine levels | only half of the level | significant cytotoxicity |  |
| FHBM: FITC and polypeptide HM-3 coupled to form a bifunctional small molecule; exogenous switching molecule for sdCAR-T cells (IVRRADRAAVPGGGGRGD; also: FITC coupled to HM-3, site not given here) |  |  | significantly lower than that at the beginning of the test | significant cytotoxicity | release significant cytokine levels | only half of the level | significant cytotoxicity | better than that of the FITC treatment group |
